Data taken from PubChem BioAssay (NCI).
Values joined by “and” are separate entries in the source; they are usually repeats but may differ in a detail not shown here. Identical values can stand only once.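 Compound exposure: 48 hours, 5 concentrations, 96-well plates. Here, GI50 denotes the concentration required for 50% inhibition of growth. TGI denotes the concentration required for complete inhibition of growth.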

Experiments:
Assay in all cases: NCI tumour cell line growth inhibition, 48 h
DMS 114 small cell lung = system: DMS 114 small cell lung
DMS 273 small cell lung = system: DMS 273 small cell lung
HOP-18 NSCLC = system: HOP-18 NSCLC
M19-MEL melanoma = system: M19-MEL melanoma
RXF-631 renal = system: RXF-631 renal
SNB-78 CNS = system: SNB-78 CNS
MDA-N = system: MDA-N
LXFL 529 NSCLC = system: LXFL 529 NSCLC
XF 498 CNS = system: XF 498 CNS
P388 leukemia = system: P388 leukemia
P388/ADR leukemia = system: P388/ADR leukemia

| Compound | TGI (DMS 114 small cell lung) [µM] | TGI (DMS 273 small cell lung) | TGI (HOP-18 NSCLC) [µM] | TGI (M19-MEL melanoma) | TGI (RXF-631 renal) [µM] | TGI (SNB-78 CNS) [µM] | TGI (MDA-N) | TGI (LXFL 529 NSCLC) [µM] | TGI (XF 498 CNS) [µM] | further results |
| --- | --- | --- | --- | --- | --- | --- | --- | --- | --- | --- |
| CCOC1=C2C(C)(CCC3[C@@]4(C)C=CC(=O)C(C)(C)C4CC(O)[C@@]23C)C(c2ccoc2)C1=O (stereo not given in full) | 36.8 | > 100 µM | > 100 | 44.1 µM | 70.5 | > 100 |  |  |  |  |
| CS(=O)(=O)N(CC(=O)O)Cc1ccccc1 |  |  |  |  |  |  | > 100 µM |  |  |  |
| O=[N+]([O-])c1cc([N+](=O)[O-])c(C(Cl)C(Cl)c2ccccc2)cc1C(Cl)C(Cl)c1ccccc1 (stereo not given) | 3.34 | 4.08 µM | 3.53 | 3.62 µM | > 21.1 | 9.72 |  | 2.87 | 3.55 |  |
| NC(=O)OCC(COc1ccc(Cl)cc1)OC(=O)c1cc([N+](=O)[O-])cc([N+](=O)[O-])c1 (stereo not given) | 53.8 | > 100 µM | > 100 |  | > 100 | > 100 |  | > 100 | > 100 |  |
| [O]=[W](=[O])([OH])[OH] |  |  |  |  |  |  | > 100 µM |  |  | GI50 (MDA-N): > 100 µM |
| COC(=O)C(C(=O)C(=O)Nc1ccc([N+](=O)[O-])cc1)c1nc2cc(C)c(C)cc2[nH]c1=O (stereo not given) | > 100 |  | > 100 | > 100 µM |  | > 100 |  | > 100 | > 100 |  |
| Cc1ccc2nc(CC(=O)c3ccc4ccccc4c3)c(=O)[nH]c2c1 |  |  |  |  |  |  | > 100 µM |  |  |  |
| CC(C)N(C(=O)C12C3C4C5C3C1(C#N)C5C42)C(C)C (stereo not given) | > 100 | > 100 µM | > 100 | > 100 µM |  | > 100 |  | > 100 | > 100 |  |
| O=C(NCCCCCCNC(=O)NC1OCC(O)C(O)C1O)NC1OCC(O)C(O)C1O (stereo not given) | > 100 |  |  | > 100 µM |  | > 100 |  | > 100 |  |  |
| NCC(=O)NC(CO)C(=O)O (stereo not given) |  |  |  |  |  |  | > 100 µM |  |  |  |
| COc1ccc(NC(=O)CC(=O)n2nc(-c3ccccc3)c(N=Nc3ccccc3C)c2-c2ccccc2)cc1 | 49.7 | 41.2 µM | > 100 | > 100 µM | > 100 |  | > 100 µM | > 100 | 33.3 |  |
| COc1ccc(OC)c(-c2cc(C(=O)O)c3cc4ccccc4cc3n2)c1 |  |  |  |  |  |  | > 100 µM |  |  |  |
| CN1CCc2cc(O)c3cc2C1Cc1ccc(cc1)Oc1cc(ccc1O)CC1c2c(cc4c(c2O3)OCO4)CCN1C (stereo not given) | 39.4 | 86.2 µM |  |  |  | > 100 |  |  | 29.2 |  |
| CC(=O)OCc1c(C)c2ccccc2n1C(C)=O | 47 | 59.9 µM | > 100 | > 100 µM | 66.9 |  |  |  | 84.6 |  |
| C/C=C(\C)C(=O)OC1C2C(C)C(=O)OC2C(O)C(C)C2C=CC(=O)C21C (stereo not given) |  |  |  |  |  |  | 22.8 µM |  |  |  |
| COc1cc2c3c(c1OCc1ccccc1)NCCC3NCC2 (stereo not given) | > 100 | > 100 µM |  | > 100 µM | > 100 | > 100 |  | > 100 | > 100 |  |
| Cc1ccc(S(=O)(=O)NC(=O)C#CCOC2CCCCO2)cc1 (stereo not given) | > 100 | > 100 µM | > 100 | > 100 µM | > 100 |  |  | > 100 | > 100 |  |
| CCOC(=O)NN(C(=O)OCC)C(C(=O)c1ccc(Cl)cc1)=C1NCCN1 | > 100 | > 100 µM | > 100 | > 100 µM |  | > 100 |  | > 100 | > 100 |  |
| CNC(=O)OCc1cc2ccncc2c2c1[nH]c1ccccc12 | > 100 | > 100 µM | > 100 | > 100 µM |  | > 100 |  | > 100 | 97.9 |  |
| COc1ccc(CCN2COc3ccc4ccc(=O)oc4c3C2)cc1OC |  |  |  |  |  |  | > 100 µM |  |  |  |
| CCCC(=O)Nc1ncnc2c1ncn2C1OC2COP(=O)(O)OC2C1OC(=O)CCC (stereo not given) |  |  |  |  |  |  | > 1000 µM |  |  | GI50 (MDA-N): > 1000 µM |
| O=C(NCc1cccs1)OC1CC2CCC1C2 (stereo not given) |  |  |  |  |  |  | > 100 µM |  |  |  |
| O=C(O)C1CCCCC1C(=O)Nc1nc2ccccc2[nH]1 (stereo not given) |  |  |  |  |  |  | > 100 µM |  |  |  |
| C/C=C1\C[C@@H]2C(OC)Nc3cc(O)c(OC)cc3C(=O)N2C1 (stereo not given in full) | 0.0035 | 0.0917 µM and < 0.0143 µM |  | 0.0413 µM and 0.0101 µM |  |  | 0.0319 µM and < 0.0163 µM | 0.209 | 0.00398 | GI50 (MDA-N): 0.014 µM; TGI (P388 leukemia): < 0.0123 µM; TGI (P388/ADR leukemia): 0.0104 µM; GI50 (XF 498 CNS): 0.00191 µM |
| Cc1cc2c(=O)c3ccccc3oc2c(C#N)c1C |  |  |  |  |  |  | > 100 µM |  |  |  |
| N#CC(C#N)=Cc1ccc(Oc2ccccc2)cc1 | 84 | 37 µM | 89.8 | > 64.8 µM | > 100 | > 90.8 |  | 56.7 | > 100 |  |
